Measurements reported in US20090018111A1, “Novel Antimicrobial Medicament” (priority 2004, published 2009).
Where two headings read alike, the source gives them in different places.

Experiments:
Assay in all cases: Sensitivity test (agar dilution)
E. faecalis ATCC19433 = format: cell-based, Enterococcus faecalis
Procedure: (§1) The antibacterial activities were tested against various 18 bacteria (27 standard strains) which are representative bacteria caused clinically infectious disease (Staphylococcus aureus 3 strains, Staphylococcus epidermidis 1 strain, Micrococcus luteus 1 strain, Streptococcus pyogenes 1 strain, Enterococcus faecalis 1 strain, Enterococcus faecium 1 strain, Bacillus subtilis 1 strain, Escherichia coli 3 strains, Klebsiella pneumoniae 1 strain, Proteus mirabilis 1 strain, Proteus vulgaris 2 strains, Pseudomonas aeruginosa 3 strains, Serratia marcescens 2 strains, Enterobacter aerogenes 1 strain, Stenotrophomonas maltophilia 1 strain, Enterobacter cloacae 1 strain, Citrobacter freundii 1 strain, Moraxella catarrhalis 2 strains).
(§2) According to the standard method of Japan Chemotherapeutic Society (Chemotherapy, vol. […], p 76-79 (1981)) the test was carried out using the agar dilution method. After dissolving test samples in distilled water, agar medium containing the test samples was prepared in such a manner that the final concentration became twice serial dilution by pouring serially diluted combination drug solution or a single drug solution into agar medium. As agar medium was used Mueller Hinton Agar medium (MHA). Then, each strain was cultivated over night at 37° C. in an incubator and suspended in buffered saline solution with gelatin (BSG) in the concentration of about 10^6 CFU/ml. The suspension (about 5 μl) containing test strains was inoculated to the medium containing the test samples by Micro Planter.
(§3) When the sample is subjected to sensitivity test, this mixed solution was diluted by twice serial dilution method.
(§4) Furthermore, when the drug is solely used, each test sample was used as it is, and diluted by twice serial dilution method from the maximum concentration to the minimum concentration.
(§5) FIC index based on MIC value was calculated. […] Namely, when FIC index calculated by the following formula is equal or less than 1, the enhanced effect of the combination drug in said ratio is considered as positive. When FIC index is over 1, the enhanced effect of the combination drug in said ratio is considered as negative.
(§6) Formula of FIC index: FIC index=(MIC of Drug A in combination/MIC of Drug A alone)+(MIC of Drug B in combination/MIC of Drug B alone) N.C. in tables means being not calculated.

[1] = tested on: S. aureus SP-7928 (homo-MRSA); format: cell-based, Staphylococcus aureus
Procedure, shortened: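 Agar dilution on Mueller Hinton agar per the Japan Chemotherapeutic Society method, with two-fold serial dilutions of single drugs or combinations dissolved in water. Overnight 37° C cultures were suspended in BSG at ~10^6 CFU/ml and ~5 μl spotted.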

E. coli ML1410 = format: cell-based, Escherichia coli; settings: Escherichia coli
Procedure: as §1, §2, §3, §4, §5, §6

E. coli NIHJ JC-2 = format: cell-based, Escherichia coli; settings: Escherichia coli
Procedure: as §1, §2, §3, §4, §5, §6

## C[C@H]1C=C(c2csc(SC3=C(C(=O)O)N4C(=O)[C@H]([C@@H](C)O)[C@H]4[C@H]3C)n2)CN1 [SM, (4R,5S,6S)-6-[(1R)-1-Hydroxyethyl]-4-methyl-3-({4-[(5S)-5-methyl-2,5-dihydro-1H-pyrrol-3-yl]-1,3-thiazol-2-yl}sulfanyl)-7-oxo-1-azabicyclo[3.2.0]hept-2-ene-2-carboxylic acid]
E. faecalis ATCC19433; Enterococcus faecalis, ATCC19433, Concomitant (PAPM:SM = 1:1), E. faecalis ATCC19433, read-out: MIC concomitant
  MIC: 1 µg/mL
E. faecalis ATCC19433; Enterococcus faecalis, ATCC19433, Concomitant (PIPC:SM = 1:1), E. faecalis ATCC19433, read-out: MIC concomitant
  MIC: 0.5 µg/mL
E. faecalis ATCC19433; Enterococcus faecalis, ATCC19433, Concomitant drug (MEPM:SM = 2:1), read-out: MIC
  MIC: 0.5 µg/mL
E. faecalis ATCC19433; Enterococcus faecalis, ATCC19433, alone, read-out: MIC
  MIC: 1 µg/mL
E. faecalis ATCC19433; Enterococcus faecalis, ATCC19433, drug alone, E. faecalis ATCC19433, read-out: MIC alone
  MIC: 2 µg/mL
E. faecalis ATCC19433; alone
  MIC: 2 µg/mL
E. faecalis ATCC19433; drug alone, E. faecalis ATCC19433
  MIC alone: 1 µg/mL
[1]; Staphylococcus aureus, MRSA, Concomitant (AZT:SM = 1:1), S. aureus SP-7928 (homo-MRSA), read-out: MIC concomitant
  MIC: 2 µg/mL
[1]; Staphylococcus aureus, MRSA, Concomitant (BIPM:SM = 1:1), S. aureus SP-7928 (homo-MRSA), read-out: MIC concomitant
  MIC: 2 µg/mL
[1]; Staphylococcus aureus, MRSA, Concomitant (CAZ:SM = 1:1), S. aureus SP-7928 (homo-MRSA), read-out: MIC concomitant
  MIC: 1 µg/mL
[1]; Staphylococcus aureus, MRSA, Concomitant (CPFX:SM = 1:1), S. aureus SP-7928 (homo-MRSA), read-out: MIC concomitant
  MIC: 0.25 µg/mL
[1]; Staphylococcus aureus, MRSA, Concomitant (DRPM:SM = 1:1), S. aureus SP-7928 (homo-MRSA), read-out: MIC concomitant
  MIC: 1 µg/mL
[1]; Staphylococcus aureus, MRSA, Concomitant (IPM:SM = 1:1), read-out: MIC
  MIC: 2 µg/mL
[1]; Staphylococcus aureus, MRSA, Concomitant (MEPM:SM = 1:1), read-out: MIC
  MIC: 1 µg/mL
[1]; Staphylococcus aureus, MRSA, Concomitant (MEPM:SM = 1:2), read-out: MIC
  MIC: 2 µg/mL
[1]; Staphylococcus aureus, MRSA, Concomitant (MEPM:SM = 1:4), read-out: MIC
  MIC: 2 µg/mL
[1]; Staphylococcus aureus, MRSA, Concomitant (PAPM:SM = 1:1), S. aureus SP-7928 (homo-MRSA), read-out: MIC concomitant
  MIC: 2 µg/mL
[1]; Staphylococcus aureus, MRSA, Concomitant (PIPC:SM = 1:1), S. aureus SP-7928 (homo-MRSA), read-out: MIC concomitant
  MIC: 1 µg/mL
[1]; Staphylococcus aureus, MRSA, Concomitant drug (MEPM:SM = 2:1), read-out: MIC
  MIC: 1 µg/mL
[1]; Staphylococcus aureus, MRSA, alone, read-out: MIC
  MIC: 1 µg/mL
[1]; Staphylococcus aureus, MRSA, drug alone, S. aureus SP-7928 (homo-MRSA), read-out: MIC alone
  MIC: 2 µg/mL
[1]; alone
  MIC: 2 µg/mL
[1]; drug alone, S. aureus SP-7928 (homo-MRSA)
  MIC alone: 1 µg/mL
E. coli ML1410; ML1410, Concomitant (AZT:SM = 1:1), E. coli ML1410, read-out: MIC concomitant
  MIC: 0.063 µg/mL
E. coli ML1410; ML1410, Concomitant (BIPM:SM = 1:1), E. coli ML1410, read-out: MIC concomitant
  MIC: 0.063 µg/mL
E. coli ML1410; ML1410, Concomitant (CAZ:SM = 1:1), E. coli ML1410, read-out: MIC concomitant
  MIC: 0.063 µg/mL
E. coli ML1410; ML1410, Concomitant (CPFX:SM = 1:1), E. coli ML1410, read-out: MIC concomitant
  MIC: 0.125 µg/mL
E. coli ML1410; ML1410, Concomitant (DRPM:SM = 1:1), E. coli ML1410, read-out: MIC concomitant
  MIC: 0.031 µg/mL
E. coli ML1410; ML1410, Concomitant (IPM:SM = 1:1), read-out: MIC
  MIC: 0.125 µg/mL
E. coli ML1410; ML1410, Concomitant (MEPM:SM = 1:1), read-out: MIC
  MIC: ≤ 0.016 µg/mL
E. coli ML1410; ML1410, Concomitant (MEPM:SM = 1:2), read-out: MIC
  MIC: ≤ 0.031 µg/mL
E. coli ML1410; ML1410, Concomitant (MEPM:SM = 1:4), read-out: MIC
  MIC: ≤ 0.063 µg/mL
E. coli ML1410; ML1410, Concomitant (PAPM:SM = 1:1), E. coli ML1410, read-out: MIC concomitant
  MIC: 0.125 µg/mL
E. coli ML1410; ML1410, Concomitant (PIPC:SM = 1:1), E. coli ML1410, read-out: MIC concomitant
  MIC: 0.125 µg/mL
E. coli ML1410; ML1410, Concomitant drug (MEPM:SM = 2:1), read-out: MIC
  MIC: ≤ 0.008 µg/mL
E. coli ML1410; ML1410, alone, read-out: MIC
  MIC: 0.25 µg/mL
E. coli ML1410; ML1410, drug alone, E. coli ML1410, read-out: MIC alone
  MIC: 0.25 µg/mL
E. coli NIHJ JC-2; NIHJJC2, Concomitant (AZT:SM = 1:1), E. coli NIHJ JC-2, read-out: MIC concomitant
  MIC: 0.063 µg/mL
E. coli NIHJ JC-2; NIHJJC2, Concomitant (BIPM:SM = 1:1), E. coli NIHJ JC-2, read-out: MIC concomitant
  MIC: 0.031 µg/mL
E. coli NIHJ JC-2; NIHJJC2, Concomitant (CAZ:SM = 1:1), E. coli NIHJ JC-2, read-out: MIC concomitant
  MIC: 0.063 µg/mL
E. coli NIHJ JC-2; NIHJJC2, Concomitant (CPFX:SM = 1:1), E. coli NIHJ JC-2, read-out: MIC concomitant
  MIC: ≤ 0.002 µg/mL
E. coli NIHJ JC-2; NIHJJC2, Concomitant (DRPM:SM = 1:1), E. coli NIHJ JC-2, read-out: MIC concomitant
  MIC: 0.016 µg/mL
E. coli NIHJ JC-2; NIHJJC2, Concomitant (IPM:SM = 1:1), read-out: MIC
  MIC: 0.063 µg/mL
E. coli NIHJ JC-2; NIHJJC2, Concomitant (MEPM:SM = 1:1), read-out: MIC
  MIC: ≤ 0.016 µg/mL
E. coli NIHJ JC-2; NIHJJC2, Concomitant (MEPM:SM = 1:2), read-out: MIC
  MIC: ≤ 0.031 µg/mL
E. coli NIHJ JC-2; NIHJJC2, Concomitant (MEPM:SM = 1:4), read-out: MIC
  MIC: ≤ 0.063 µg/mL
